Reference: patent US4507315A, “Hypoglycaemic and hypolipidaemic benzamide substituted (1H-) imidazole derivatives and compositions” (May & Baker Limited, priority 1982, dated 1985)
Where “and” joins values, the source holds several entries; their conditions need not be identical. Identical values can stand only once.

Assays:
Assay type in all cases: in vivo
[1] = test system: Diabetic mice (strain C 57, black, MRI derived Obese/Obese); test: Hypoglycaemic Activity in Diabetic Mice (oral, 3 days); conditions: for change in vivo at 200 mg/kg / change in blood glucose compared with control: 200 mg/kg body weight per day; for change in vivo at 30 mg/kg: 30 mg/kg body weight per day; for change in vivo at 100 mg/kg: 100 mg/kg body weight per day
Experimental: Diabetic mice (strain C 57, black, MRI derived Obese/Obese) of either sex each weighing between 45 and 70 g were given the test compound orally in tragacanth mucilage at a dose of 5,10,30,100,200 or 500 mg/kg body weight per day for 3 days. Three hours after the last dose the animals were killed with carbon dioxide and bled by cardiac puncture. The blood glucose levels were assessed by the glucose-oxidase method of GOD-Perid. Control groups (given doses of unmedicated tragacanth mucilage) were included with each test. The percentage reduction in the concentration of blood glucose was calculated by comparison with the simultaneous controls, for each of the test compounds used.

Male Wistar rats = test: Hypolipidaemic Activity in Rats; conditions: oral, last 3 days of 10-day cholesterol/cholic acid diet
Experimental: Male Wistar rats each weighing between 120 and 150 g were caged in groups of eight and fed a pelleted diet incorporating 0.5% w/w cholesterol and 0.25% w/w cholic acid for 10 days. For the last 3 days of that period the test compound was administered orally at a dose of 30, 100 or 200 mg/kg body weight per day in tragacanth mucilage.
At noon on day 10 the animals were killed by inhalation of carbon dioxide from solid carbon dioxide. A sample of blood was removed by cardiac puncture and the serum cholesterol and serum triglycerides were analysed by means of an auto-analyser.
Control group (receiving only doses of unmedicated tragacanth mucilage) were included with each test.
The percentage reductions in the concentrations of serum cholesterol and serum triglycerides were calculated by comparison with the simultaneous controls, for each concentration of the test compound used.

[2] = test system: Diabetic mice (strain C 57, black, MRI derived Obese/Obese); test: Hypoglycaemic Activity in Diabetic Mice (oral, 8 days, W hydrochloride); conditions: male diabetic mice
Experimental: Groups of diabetic mice (strain C 57, black, MRI derived Obese/Obese) of male sex of mean weight between 43 and 46 g were given the test compound W hydrochloride orally in tragacanth mucilage at a dose of 2, 5 or 100 mg/kg body weight per day for 8 days. Three hours after the last dose the animals were bled from the tail vein. The blood glucose levels were assessed by the glucose-oxidase method of GOD-Perid. Control groups (given doses of unmedicated tragacanth mucilage) were included with each test. The percentage reduction in the concentration of blood glucose was calculated by comparison with the simultaneous controls.

Rats (Sprague-Dawley) = test: Hypoglycaemic Activity in Fasted Rats; conditions: 100 mg/kg body weight per day, oral, 4 days, fasted male Sprague-Dawley rats
Experimental: Rats (Sprague-Dawley) of male sex each weighing between 171 and 174 g were given the test compound W hydrochloride orally in tragacanth mucilage at a dose of 100 mg/kg body weight per day for 4 days. Four hours after the third dose the animals were kept without food up to and beyond the fourth dose. Three hours after the last dose the animals were bled from the tail vein. The blood glucose levels were assessed by the glucose-oxidase method of GOD-Perid. Control groups (given doses of unmedicated tragacanth mucilage) were included with each test. The percentage reduction in the concentration of blood glucose was calculated by comparison with the simultaneous controls.

[3] = Mus musculus, po, 72 h, read-out: change in blood glucose compared with control

Structure (SMILES): CC(CCNC(=O)c1ccccc1NS(=O)(=O)c1ccc(Cl)cc1)n1ccnc1 (racemic) [WW, (±)-2-(4-chlorobenzenesulphonamido)-N-(3-imidazol-1-ylbutyl)benzamide]
- change in vivo at 200 mg/kg [1, 3]: -24%

Structure (SMILES): O=C(NCCCn1ccnc1)c1ccccc1NS(=O)(=O)c1ccc(Cl)cc1 [A, 2-(4-chlorobenzenesulphonamido)-N-(3-imidazol-1-ylpropyl)benzamide]
- change in vivo at 30 mg/kg [1, 3]: -13%
- change in vivo at 100 mg/kg [1, 3]: -49%
- % change in serum cholesterol compared with control (Male Wistar rats; 30 mg/kg body weight per day): -13%
- % change in serum triglycerides compared with control (Male Wistar rats; 30 mg/kg body weight per day): +67%
- % change in serum cholesterol compared with control (Male Wistar rats; 100 mg/kg body weight per day): -35%
- % change in serum triglycerides compared with control (Male Wistar rats; 100 mg/kg body weight per day): +36%
- % change in serum cholesterol compared with control (Male Wistar rats; 200 mg/kg body weight per day): -82% and -83%

Structure (SMILES): O=C(NCCCn1ccnc1)c1ccccc1NS(=O)(=O)c1cccc(Cl)c1 [B, 2-(3-chlorobenzenesulphonamido)-N-(3-imidazol-1-ylpropyl)benzamide]
- change in vivo at 200 mg/kg [1, 3]: -60%

Structure (SMILES): O=C(NCCCn1ccnc1)c1ccccc1NS(=O)(=O)c1ccc(Br)cc1 [D, 2-(4-bromobenzenesulphonamido)-N-(3-imidazol-1-ylpropyl)benzamide]
- % change in serum cholesterol compared with control (Male Wistar rats; 200 mg/kg body weight per day): -63%
- % change in serum triglycerides compared with control (Male Wistar rats; 200 mg/kg body weight per day): -59%

Structure (SMILES): O=C(NCCCn1ccnc1)c1ccccc1NS(=O)(=O)c1ccccc1 [E, 2-(benzenesulphonamido)-N-(3-imidazol-1-ylpropyl)benzamide]
- % change in serum cholesterol compared with control (Male Wistar rats; 200 mg/kg body weight per day): -31%
- % change in serum triglycerides compared with control (Male Wistar rats; 200 mg/kg body weight per day): +55%

Structure (SMILES): Cc1ccc(S(=O)(=O)Nc2ccccc2C(=O)NCCCn2ccnc2)cc1 [F, 2-(4-methylbenzenesulphonamido)-N-(3-imidazol-1-yl-propyl)benzamide]
- change in vivo at 200 mg/kg [1, 3]: -32%
- % change in serum cholesterol compared with control (Male Wistar rats; 200 mg/kg body weight per day): -72%
- % change in serum triglycerides compared with control (Male Wistar rats; 200 mg/kg body weight per day): -60%

Structure (SMILES): Cc1ccc(S(=O)(=O)Nc2ccccc2C(=O)NCCCn2ccnc2)cc1C [G, 2-(3,4-dimethylbenzenesulphonamido)-N-(3-imidazol-1-ylpropyl)benzamide]
- change in vivo at 200 mg/kg [1, 3]: -25%

Structure (SMILES): O=C(NCCCn1ccnc1)c1cc(Cl)ccc1NS(=O)(=O)c1ccc(Cl)cc1 [I, 5-chloro-2-(4-chlorobenzenesulphonamido)-N-(3-imidazol-1-ylpropyl)benzamide]
- change in vivo at 200 mg/kg [1, 3]: -57%

Structure (SMILES): O=C(NCCCn1ccnc1)c1ccccc1NS(=O)(=O)c1cc(Cl)ccc1Cl [J, 2-(2,5-dichlorobenzenesulphonamido)-N-(3-imidazol-1-ylpropyl)benzamide]
- change in vivo at 200 mg/kg [1, 3]: -42%

Structure (SMILES): Cc1cn(CCCNC(=O)c2ccccc2NS(=O)(=O)c2ccc(Cl)cc2)cn1 [N, 2-(4-chlorobenzenesulphonamido)-N-[3-(4-methylimidazol-1-yl)propyl]benzamide]
- change in vivo at 200 mg/kg [1, 3]: -48%

Structure (SMILES): O=C(NCCCn1ccnc1)c1ccccc1NS(=O)(=O)c1ccc(F)cc1F [OO, 2-(2,4-difluorobenzenesulphonamido)-N-(3-imidazol-1-ylpropyl)benzamide]
- change in vivo at 200 mg/kg [1, 3]: -35%

Structure (SMILES): Cc1ccccc1S(=O)(=O)Nc1ccccc1C(=O)NCCCn1ccnc1 [QQ, 2-(2-methylbenzenesulphonamido)-N-(3-imidazol-1-ylpropyl)benzamide]
- change in vivo at 200 mg/kg [1, 3]: -43%

Structure (SMILES): O=C(NCCn1ccnc1)c1ccccc1NS(=O)(=O)c1ccc(Cl)cc1 [VV, 2-(4-chlorobenzenesulphonamido)-N-(2-imidazol-1-ylethyl)benzamide]
- change in vivo at 200 mg/kg [1, 3]: -53%

Structure (SMILES): Cl.O=C(NCCCn1ccnc1)c1ccccc1NS(=O)(=O)c1cccc(C(F)(F)F)c1 [W hydrochloride, 2-(3-trifluoromethylbenzenesulphonamido)-N-(3-imidazol-1-ylpropyl)benzamide hydrochloride]
- change in blood glucose compared with control [1]: -62%
- change in vivo at 5 mg/kg ([1]; Mus musculus, po, 72 h, 5 mg/kg body weight per day, read-out: change in blood glucose compared with control): -25%
- change in vivo at 10 mg/kg ([1]; Mus musculus, po, 72 h, 10 mg/kg body weight per day, read-out: change in blood glucose compared with control): -29%
- change in vivo at 30 mg/kg [1, 3]: -58%
- change in vivo at 100 mg/kg [1, 3]: -50%
- change in vivo at 500 mg/kg ([1]; Mus musculus, po, 72 h, 500 mg/kg body weight per day, read-out: change in blood glucose compared with control): -46%
- % change in blood glucose compared with control ([2]; 2 mg/kg body weight per day): -25%
- % change in blood glucose compared with control ([2]; 5 mg/kg body weight per day): -28%
- % change in blood glucose compared with control ([2]; 100 mg/kg body weight per day): -50%
- % change in blood glucose compared with control (Rats (Sprague-Dawley)): -26%

Structure (SMILES): O=C(NCCCn1ccnc1)c1ccccc1NS(=O)(=O)c1cccc(C(F)(F)F)c1 [W, 2-(3-trifluoromethylbenzenesulphonamido)-N-(3-imidazol-1-ylpropyl)benzamide]
- change in blood glucose compared with control [1]: -68%

Structure (SMILES): O=C(NCCCn1ccnc1)c1ccccc1NS(=O)(=O)c1ccc(Cl)c(Cl)c1 [X, 2-(3,4-dichlorobenzenesulphonamido)-N-(3-imidazol-1-ylpropyl)benzamide]
- change in vivo at 200 mg/kg [1, 3]: -58%

Structure (SMILES): O=C(NCCCn1ccnc1)c1ccccc1NS(=O)(=O)c1ccc(Cl)cc1Cl [Y, 2-(2,4-dichlorobenzenesulphonamido)-N-(3-imidazol-1-ylpropyl)benzamide]
- change in vivo at 200 mg/kg [1, 3]: -51%
